Data reported in ChEMBL document CHEMBL4627344, “Synthesis, biological evaluation and virtual screening of some acridone derivatives as potential anticancer agents” (2020).

How the values were obtained:
Type in all cases: functional
SR [1] = assay: Antiproliferative activity against human SR cells assessed as inhibition of cell growth at 10 uM measured after 48 hrs by SRB assay relative to control; conditions: read-out: GI
HCC 2998 = assay: Antiproliferative activity against human HCC2998 cells assessed as inhibition of cell growth at 10 uM measured after 48 hrs by SRB assay relative to control; conditions: HCC 2998, 48 h, read-out: GI
SF-539 = assay: Antiproliferative activity against human SF539 cells assessed as inhibition of cell growth at 10 uM measured after 48 hrs by SRB assay relative to control; conditions: SF-539, 48 h, read-out: GI
SNB-19 = assay: Antiproliferative activity against human SNB19 cells assessed as inhibition of cell growth at 10 uM measured after 48 hrs by SRB assay relative to control; conditions: SNB-19, 48 h, read-out: GI
IGROV-1 [2] = assay: Antiproliferative activity against human IGROV1 cells assessed as inhibition of cell growth at 10 uM measured after 48 hrs by SRB assay relative to control; conditions: IGROV-1, 48 h, read-out: GI
A498 = assay: Antiproliferative activity against human A498 cells assessed as inhibition of cell growth at 10 uM measured after 48 hrs by SRB assay relative to control; conditions: A498, 48 h, read-out: GI
MDA-MB-231 [3] = assay: Antiproliferative activity against human MDA-MB-231 cells assessed as inhibition of cell growth at 10 uM measured after 48 hrs by SRB assay relative to control; conditions: MDA-MB-231, 48 h, read-out: GI
BT-549 = assay: Antiproliferative activity against human BT549 cells assessed as inhibition of cell growth at 10 uM measured after 48 hrs by SRB assay relative to control; conditions: BT-549, 48 h, read-out: GI
CCRF-CEM = assay: Antiproliferative activity against human CCRF-CEM cells assessed as inhibition of cell growth measured after 48 hrs by SRB assay
K562 = assay: Antiproliferative activity against human K562 cells assessed as inhibition of cell growth measured after 48 hrs by SRB assay; conditions: K562, 48 h
MOLT-4 = assay: Antiproliferative activity against human MOLT4 cells assessed as inhibition of cell growth measured after 48 hrs by SRB assay; conditions: MOLT-4, 48 h
SR [4] = assay: Antiproliferative activity against human SR cells assessed as inhibition of cell growth measured after 48 hrs by SRB assay
COLO 205 = assay: Antiproliferative activity against human COLO205 cells assessed as inhibition of cell growth measured after 48 hrs by SRB assay; conditions: COLO 205, 48 h
M14 = assay: Antiproliferative activity against human M14 cells assessed as inhibition of cell growth measured after 48 hrs by SRB assay; conditions: M14, 48 h
IGROV-1 [5] = assay: Antiproliferative activity against human IGROV1 cells assessed as inhibition of cell growth measured after 48 hrs by SRB assay; conditions: IGROV-1, 48 h
ACHN = assay: Antiproliferative activity against human ACHN cells assessed as inhibition of cell growth measured after 48 hrs by SRB assay
MCF7 = assay: Antiproliferative activity against human MCF7 cells assessed as inhibition of cell growth measured after 48 hrs by SRB assay; conditions: MCF7, 48 h
MDA-MB-231 [6] = assay: Antiproliferative activity against human MDA-MB-231 cells assessed as inhibition of cell growth measured after 48 hrs by SRB assay; conditions: MDA-MB-231, 48 h
Hs-578T = assay: Antiproliferative activity against human Hs 578T cells assessed as inhibition of cell growth measured after 48 hrs by SRB assay
T47D = assay: Antiproliferative activity against human T47D cells assessed as inhibition of cell growth measured after 48 hrs by SRB assay
MDA-MB-468 = assay: Antiproliferative activity against human MDA-MB-468 cells assessed as inhibition of cell growth measured after 48 hrs by SRB assay; conditions: MDA-MB-468, 48 h
SF-268 = assay: Antiproliferative activity against human SF268 cells assessed as inhibition of cell growth measured after 48 hrs by SRB assay; conditions: SF-268, 48 h
Malme-3M = assay: Antiproliferative activity against human MALME-3M cells assessed as inhibition of cell growth measured after 48 hrs by SRB assay
HOP-92 = assay: Antiproliferative activity against human HOP92 cells assessed as inhibition of cell growth measured after 48 hrs by SRB assay; conditions: HOP-92, 48 h
OVCAR-4 = assay: Antiproliferative activity against human OVCAR4 cells assessed as inhibition of cell growth measured after 48 hrs by SRB assay; conditions: OVCAR-4, 48 h
TK-10 = assay: Antiproliferative activity against human TK10 cells assessed as inhibition of cell growth measured after 48 hrs by SRB assay; conditions: TK-10, 48 h

Compound | inhibition of growth at 10 µM (SR [1]) [%] | inhibition of growth at 10 µM (HCC 2998) [%] | inhibition of growth at 10 µM (SF-539) [%] | inhibition of growth at 10 µM (SNB-19) [%] | inhibition of growth at 10 µM (IGROV-1 [2]) [%] | inhibition of growth at 10 µM (A498) [%] | inhibition of growth at 10 µM (MDA-MB-231 [3]) [%] | inhibition of growth at 10 µM (BT-549) [%] | GI50 (CCRF-CEM) [nM] | GI50 (K562) [nM] | GI50 (MOLT-4) [nM] | GI50 (SR [4]) [nM] | GI50 (COLO 205) [nM] | GI50 (M14) [nM] | GI50 (IGROV-1 [5]) [nM] | GI50 (ACHN) [nM] | GI50 (MCF7) [nM] | GI50 (MDA-MB-231 [6]) [nM] | GI50 (Hs-578T) [nM] | GI50 (MDA-MB-468) [nM] | further results
COc1ccc2nc3c(cc2c1)C(=O)CC(C(F)(F)F)C3 (stereo not drawn) | 83.6 | 16 | 77.4 | 49.7 | 63.4 | 108 | 40 | 39.1 | 238 | 437 | 88.2 | 217 | 1160 | 238 | 769 | 768 | 3420 | 3980 | 3350 | 1870 | GI50 (T47D): 3290 nM
COc1ccc2nc3c(cc2c1)C(=O)CC(c1ccccc1)C3 (stereo not drawn) | 82.3 | 8.74 | 92.1 | 65.7 | 64.2 | 113 | 45.4 | 48.3 | 322 | 344 | 431 | 322 | 608 | 259 | 2310 | 756 | 3490 | 3420 | 1000 | – | GI50 (T47D): 3650 nM
O=C1CC(c2ccccc2)Cc2nc3ccc(Br)cc3cc21 (stereo not drawn) | 86.9 | 73 | 98.4 | 72.6 | 78 | 112 | 86.8 | 93.5 | 49.8 | 175 | 53.7 | 56.7 | 261 | 50.5 | 423 | 583 | 2760 | 598 | 411 | 2840 | GI50 (SF-268): 3450 nM; GI50 (Malme-3M): 94.9 nM
O=C1CC(c2ccccc2)Cc2nc3ccc(Cl)cc3cc21 (stereo not drawn) | 87 | 94.7 | 112 | 75 | 83.5 | 117 | 80.5 | 95.4 | 40 | 119 | 67.5 | 53.2 | 346 | 38 | 375 | 508 | 2550 | 617 | 306 | 2470 | –
O=C1CC(c2ccccc2)Cc2nc3c(Br)cc(Br)cc3cc21 (stereo not drawn) | 80.5 | 93.5 | 93.1 | 65.2 | 84.8 | – | 84.9 | 94.7 | 88.9 | 67.6 | 104 | 91.3 | 152 | 284 | 125 | 595 | 382 | 402 | 191 | 1280 | GI50 (HOP-92): 66.8 nM; GI50 (SF-268): 167 nM; GI50 (Malme-3M): 119 nM; GI50 (OVCAR-4): 1410 nM; GI50 (TK-10): 700 nM; GI50 (T47D): 851 nM
